Here are results for two molecules from PMC5761851, “Application of a phenotypic drug discovery strategy to identify biological and chemical starting points for inhibition of TSLP production in lung epithelial cells” (PLoS ONE, 2018).

The target of one experiment is T1, A2A (Homo sapiens, UniProt P29274).
T1 construct: purchased Eurofins Pharma Discovery Services (KinaseProfiler; Cerep BioPrint panel)
Briefly: BioPrint panel: A2A (h) (agonist). The format is binding. As to conditions: 1 micromolar, read-out: percentage of inhibition of activity. An excerpt:
(§1) Supplement pone.0189247.s004.xlsx, sheet "Bioprint Selectivity Panel" | column: %

The target in another experiment is T2, alpha 1B (Homo sapiens, UniProt P35368).
T2 construct: purchased Eurofins Pharma Discovery Services (KinaseProfiler; Cerep BioPrint panel)
T2 sequence (P35368 whole entry): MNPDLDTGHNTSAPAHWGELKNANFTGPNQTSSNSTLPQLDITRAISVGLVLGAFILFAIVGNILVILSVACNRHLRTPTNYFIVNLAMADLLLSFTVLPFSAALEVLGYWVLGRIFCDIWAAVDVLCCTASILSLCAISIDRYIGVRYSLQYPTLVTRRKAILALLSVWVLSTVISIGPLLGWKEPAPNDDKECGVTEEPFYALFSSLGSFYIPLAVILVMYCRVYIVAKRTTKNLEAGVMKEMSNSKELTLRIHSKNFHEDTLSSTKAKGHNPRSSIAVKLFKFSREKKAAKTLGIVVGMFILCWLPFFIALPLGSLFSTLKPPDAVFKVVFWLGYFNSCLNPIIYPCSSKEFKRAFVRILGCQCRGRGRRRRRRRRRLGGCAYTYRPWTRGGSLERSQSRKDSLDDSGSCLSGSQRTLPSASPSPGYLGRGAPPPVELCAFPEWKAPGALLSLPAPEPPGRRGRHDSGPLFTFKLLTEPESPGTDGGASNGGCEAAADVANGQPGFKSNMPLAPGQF
Briefly: BioPrint panel: alpha 1B (h) (antagonist). The format is binding. As to conditions: 1 micromolar, read-out: percentage of inhibition of activity.
Source text: as §1

The target in the next experiment is T3, beta 2 (Homo sapiens, UniProt P07550).
T3 construct: purchased Eurofins Pharma Discovery Services (KinaseProfiler; Cerep BioPrint panel)
T3 sequence (P07550 whole entry): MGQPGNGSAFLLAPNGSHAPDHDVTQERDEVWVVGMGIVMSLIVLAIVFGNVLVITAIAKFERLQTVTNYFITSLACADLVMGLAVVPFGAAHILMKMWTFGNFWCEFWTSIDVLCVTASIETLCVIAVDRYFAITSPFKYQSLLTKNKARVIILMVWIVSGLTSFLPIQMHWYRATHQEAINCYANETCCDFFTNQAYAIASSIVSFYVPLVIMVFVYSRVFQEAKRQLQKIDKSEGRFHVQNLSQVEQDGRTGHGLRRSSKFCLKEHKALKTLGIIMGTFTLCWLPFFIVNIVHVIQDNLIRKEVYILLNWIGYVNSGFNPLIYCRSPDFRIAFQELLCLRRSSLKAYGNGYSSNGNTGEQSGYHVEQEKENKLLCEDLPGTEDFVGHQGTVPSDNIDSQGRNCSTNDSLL
As to the kind of experiment: BioPrint panel: beta 2 (h) (agonist). The format is binding. As to conditions: 1 micromolar, read-out: percentage of inhibition of activity.
Source text: as §1

The target of the next experiment is T4, glucagon (Homo sapiens, UniProt P47871).
T4 construct: purchased Eurofins Pharma Discovery Services (KinaseProfiler; Cerep BioPrint panel)
Briefly: BioPrint panel: glucagon (h) (agonist). Type of experiment: binding. As to conditions: 1 micromolar, read-out: percentage of inhibition of activity.
Source text: as §1

Another experiment deals with kainate. Briefly: BioPrint panel: kainate (agonist). The format is binding. As to conditions: 1 micromolar.
Source text: as §1

A further experiment concerns I1. As to the kind of experiment: BioPrint panel: I1 (agonist). As to conditions: 1 micromolar. The format is binding.
Source text: as §1

In the next experiment the target is T5, BLT1 (LTB4) (Homo sapiens, UniProt Q15722).
T5 construct: purchased Eurofins Pharma Discovery Services (KinaseProfiler; Cerep BioPrint panel)
T5 sequence (Q15722 whole entry): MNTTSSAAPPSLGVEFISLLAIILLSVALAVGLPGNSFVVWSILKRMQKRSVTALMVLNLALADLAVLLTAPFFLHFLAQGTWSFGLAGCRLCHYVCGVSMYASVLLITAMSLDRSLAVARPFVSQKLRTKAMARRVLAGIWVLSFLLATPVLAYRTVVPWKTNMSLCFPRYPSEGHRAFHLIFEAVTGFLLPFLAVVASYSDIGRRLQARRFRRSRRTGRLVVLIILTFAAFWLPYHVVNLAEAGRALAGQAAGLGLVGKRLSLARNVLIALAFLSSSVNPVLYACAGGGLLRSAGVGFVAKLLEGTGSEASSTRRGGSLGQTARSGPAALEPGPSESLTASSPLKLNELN
As to the kind of experiment: BioPrint panel: BLT1 (LTB4) (h) (agonist). The format is binding. As to conditions: 1 micromolar, read-out: percentage of inhibition of activity.
Source text: as §1

A further experiment has as its target T6, CysLT1 (LTD4) (Homo sapiens, UniProt Q9Y271).
T6 construct: purchased Eurofins Pharma Discovery Services (KinaseProfiler; Cerep BioPrint panel)
Briefly: BioPrint panel: CysLT1 (LTD4) (h) (agonist). The format is binding. As to conditions: 1 micromolar, read-out: percentage of inhibition of activity.
Source text: as §1

The next experiment deals with T7, MC4 (Homo sapiens, UniProt P32245).
T7 construct: purchased Eurofins Pharma Discovery Services (KinaseProfiler; Cerep BioPrint panel)
As to the kind of experiment: BioPrint panel: MC4 (h) (agonist). Type of experiment: binding. As to conditions: 1 micromolar, read-out: percentage of inhibition of activity.
Source text: as §1

A further experiment addresses T8, motilin (Homo sapiens, UniProt O43193).
T8 construct: purchased Eurofins Pharma Discovery Services (KinaseProfiler; Cerep BioPrint panel)
As to the kind of experiment: BioPrint panel: motilin (h) (agonist). As to conditions: 1 micromolar, read-out: percentage of inhibition of activity. The format is binding.
Source text: as §1

A further experiment addresses T9, NK1 (Homo sapiens, UniProt P25103).
T9 construct: purchased Eurofins Pharma Discovery Services (KinaseProfiler; Cerep BioPrint panel)
As to the kind of experiment: BioPrint panel: NK1 (h) (agonist). Type of experiment: binding. As to conditions: 1 micromolar, read-out: percentage of inhibition of activity.
Source text: as §1

For the next experiment, the target named is T10, NK2 (Homo sapiens, UniProt P21452).
T10 construct: purchased Eurofins Pharma Discovery Services (KinaseProfiler; Cerep BioPrint panel)
Briefly: BioPrint panel: NK2 (h) (agonist). Type of experiment: binding. As to conditions: 1 micromolar, read-out: percentage of inhibition of activity.
Source text: as §1

The next experiment deals with T11, PAF (Homo sapiens, UniProt P25105).
T11 construct: purchased Eurofins Pharma Discovery Services (KinaseProfiler; Cerep BioPrint panel)
T11 sequence (P25105 whole entry): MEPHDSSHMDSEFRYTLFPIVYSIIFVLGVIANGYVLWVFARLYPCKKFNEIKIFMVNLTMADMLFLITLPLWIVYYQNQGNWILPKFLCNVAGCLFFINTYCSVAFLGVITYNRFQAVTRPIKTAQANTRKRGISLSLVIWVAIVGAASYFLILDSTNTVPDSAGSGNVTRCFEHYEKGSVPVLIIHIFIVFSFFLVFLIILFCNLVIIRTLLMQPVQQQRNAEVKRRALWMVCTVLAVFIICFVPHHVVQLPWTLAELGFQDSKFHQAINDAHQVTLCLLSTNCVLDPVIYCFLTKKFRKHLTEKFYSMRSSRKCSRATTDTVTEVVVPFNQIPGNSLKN
As to the kind of experiment: BioPrint panel: PAF (h) (agonist). As to conditions: 1 micromolar, read-out: percentage of inhibition of activity. Type of experiment: binding.
Source text: as §1

The target in another experiment is T12, 5-HT1D (Rattus norvegicus, UniProt P28565).
T12 construct: purchased Eurofins Pharma Discovery Services (KinaseProfiler; Cerep BioPrint panel)
T12 sequence (P28565 whole entry): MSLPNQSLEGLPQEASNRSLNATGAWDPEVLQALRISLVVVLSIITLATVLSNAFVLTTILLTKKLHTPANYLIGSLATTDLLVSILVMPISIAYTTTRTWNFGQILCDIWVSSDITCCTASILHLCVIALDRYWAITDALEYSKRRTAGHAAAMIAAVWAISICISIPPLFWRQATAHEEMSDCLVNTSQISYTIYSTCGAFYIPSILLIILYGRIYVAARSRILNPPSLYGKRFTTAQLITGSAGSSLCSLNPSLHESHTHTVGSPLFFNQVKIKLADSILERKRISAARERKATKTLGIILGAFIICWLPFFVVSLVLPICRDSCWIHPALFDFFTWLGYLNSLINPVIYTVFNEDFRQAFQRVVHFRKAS
As to the kind of experiment: BioPrint panel: 5-HT1D (agonist). The format is binding. As to conditions: 1 micromolar, read-out: percentage of inhibition of activity.
Source text: as §1

The next experiment has as its target T13, 5-HT3 (Homo sapiens, UniProt P46098).
T13 construct: purchased Eurofins Pharma Discovery Services (KinaseProfiler; Cerep BioPrint panel)
As to the kind of experiment: BioPrint panel: 5-HT3 (h) (antagonist). The format is binding. As to conditions: 1 micromolar, read-out: percentage of inhibition of activity.
Source text: as §1

Another experiment has as its target T14, 5-HT6 (Homo sapiens, UniProt P50406).
T14 construct: purchased Eurofins Pharma Discovery Services (KinaseProfiler; Cerep BioPrint panel)
Briefly: BioPrint panel: 5-HT6 (h) (agonist). Type of experiment: binding. As to conditions: 1 micromolar, read-out: percentage of inhibition of activity.
Source text: as §1

Another experiment deals with T15, sst1 (Homo sapiens, UniProt P30872).
T15 construct: purchased Eurofins Pharma Discovery Services (KinaseProfiler; Cerep BioPrint panel)
T15 sequence (P30872 whole entry): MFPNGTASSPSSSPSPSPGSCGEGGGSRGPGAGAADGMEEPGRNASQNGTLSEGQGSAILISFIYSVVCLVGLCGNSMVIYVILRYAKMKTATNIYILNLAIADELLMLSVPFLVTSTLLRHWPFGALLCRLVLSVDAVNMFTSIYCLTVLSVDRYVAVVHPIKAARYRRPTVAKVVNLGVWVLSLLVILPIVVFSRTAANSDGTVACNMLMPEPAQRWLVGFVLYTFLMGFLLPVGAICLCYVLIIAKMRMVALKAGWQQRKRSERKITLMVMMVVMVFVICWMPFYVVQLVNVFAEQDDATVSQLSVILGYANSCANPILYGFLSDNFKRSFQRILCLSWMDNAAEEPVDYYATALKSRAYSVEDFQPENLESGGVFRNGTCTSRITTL
As to the kind of experiment: BioPrint panel: sst1 (h) (agonist). The format is binding. As to conditions: 1 micromolar, read-out: percentage of inhibition of activity.
Source text: as §1

A further experiment addresses T16, ERalpha (Homo sapiens, UniProt P03372).
T16 construct: purchased Eurofins Pharma Discovery Services (KinaseProfiler; Cerep BioPrint panel)
As to the kind of experiment: BioPrint panel: ERalpha (h) (agonist fluoligand). The format is binding. As to conditions: 1 micromolar, read-out: percentage of inhibition of activity.
Source text: as §1

The subject of experiment [1] is Ca2+ channel (L, dihydropyridine site). As to the kind of experiment: BioPrint panel: Ca2+ channel (L, dihydropyridine site) (antagonist). As to conditions: 1 micromolar. The format is binding.
Source text: as §1

In the next experiment the test system is Na+ channel (site 2). Briefly: BioPrint panel: Na+ channel (site 2) (antagonist). Type of experiment: binding. As to conditions: 1 micromolar.
Source text: as §1

The test system of a further experiment is HIV-1 protease. Briefly: BioPrint panel: HIV-1 protease. The format is biochemical. As to conditions: 1 micromolar.
Source text: as §1

The target in a further experiment is T17, MMP-1 (Homo sapiens, UniProt P03956).
T17 construct: purchased Eurofins Pharma Discovery Services (KinaseProfiler; Cerep BioPrint panel)
Briefly: BioPrint panel: MMP-1 (h). Type of experiment: biochemical. As to conditions: 1 micromolar.
Source text: as §1

For another experiment, the target named is T18, CaMK2alpha (Homo sapiens, UniProt Q9UQM7).
T18 construct: purchased Eurofins Pharma Discovery Services (KinaseProfiler; Cerep BioPrint panel)
As to the kind of experiment: BioPrint panel: CaMK2alpha (h). Type of experiment: biochemical. As to conditions: 1 micromolar, read-out: percentage of inhibition of activity.
Source text: as §1

For another experiment, the target named is T19, Fyn (Homo sapiens, UniProt P06241).
T19 construct: purchased Eurofins Pharma Discovery Services (KinaseProfiler; Cerep BioPrint panel)
T19 sequence (P06241 whole entry): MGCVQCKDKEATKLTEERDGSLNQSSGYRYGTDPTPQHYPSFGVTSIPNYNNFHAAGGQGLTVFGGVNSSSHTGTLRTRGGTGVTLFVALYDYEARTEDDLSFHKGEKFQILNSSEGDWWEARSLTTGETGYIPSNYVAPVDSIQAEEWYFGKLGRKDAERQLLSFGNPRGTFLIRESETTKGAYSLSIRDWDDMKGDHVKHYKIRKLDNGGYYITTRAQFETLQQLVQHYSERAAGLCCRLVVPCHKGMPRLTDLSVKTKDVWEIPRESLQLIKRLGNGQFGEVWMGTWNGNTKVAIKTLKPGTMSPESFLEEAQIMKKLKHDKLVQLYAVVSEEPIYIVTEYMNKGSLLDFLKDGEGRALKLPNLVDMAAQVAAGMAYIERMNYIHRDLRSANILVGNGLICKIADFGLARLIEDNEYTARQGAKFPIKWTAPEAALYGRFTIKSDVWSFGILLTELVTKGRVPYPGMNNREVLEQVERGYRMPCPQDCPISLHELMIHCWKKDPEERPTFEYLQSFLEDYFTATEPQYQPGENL
As to the kind of experiment: BioPrint panel: Fyn kinase (h). As to conditions: 1 micromolar, read-out: percentage of inhibition of activity. Type of experiment: biochemical.
Source text: as §1

Another experiment addresses T20, ZAP-70 (Homo sapiens, UniProt P43403).
T20 construct: purchased Eurofins Pharma Discovery Services (KinaseProfiler; Cerep BioPrint panel)
T20 sequence (P43403 1-619): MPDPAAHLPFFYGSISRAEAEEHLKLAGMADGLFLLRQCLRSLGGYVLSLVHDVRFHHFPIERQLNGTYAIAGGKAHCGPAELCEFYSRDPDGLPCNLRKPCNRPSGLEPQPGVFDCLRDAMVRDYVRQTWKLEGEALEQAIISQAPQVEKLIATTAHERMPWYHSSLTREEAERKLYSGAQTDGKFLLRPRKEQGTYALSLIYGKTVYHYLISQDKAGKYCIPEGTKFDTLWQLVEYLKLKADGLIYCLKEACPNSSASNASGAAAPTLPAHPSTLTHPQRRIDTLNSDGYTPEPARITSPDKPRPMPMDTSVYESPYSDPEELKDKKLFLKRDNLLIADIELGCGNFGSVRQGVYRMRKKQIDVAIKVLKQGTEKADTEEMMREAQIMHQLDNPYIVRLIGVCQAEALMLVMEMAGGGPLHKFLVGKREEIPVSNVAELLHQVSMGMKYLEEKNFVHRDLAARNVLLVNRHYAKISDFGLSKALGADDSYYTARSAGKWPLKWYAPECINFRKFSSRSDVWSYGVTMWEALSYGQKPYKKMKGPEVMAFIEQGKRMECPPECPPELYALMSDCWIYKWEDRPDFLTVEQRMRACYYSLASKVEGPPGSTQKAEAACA
As to the kind of experiment: BioPrint panel: ZAP70 kinase (h). Type of experiment: biochemical. As to conditions: 1 micromolar, read-out: percentage of inhibition of activity.
Source text: as §1

The test system of experiment [2] is COMT (catechol- O-methyl transferase). As to the kind of experiment: BioPrint panel: COMT (catechol- O-methyl transferase). Type of experiment: biochemical. As to conditions: 1 micromolar.
Source text: as §1

For a further experiment, the system named is CHO-K1 cells. Briefly: CHO-K1 viability (ATPlite). As to conditions: 25 μM. Type of experiment: cell-based. The procedure:
The viability of NHBE and CHO-K1 cells was quantified using ATP as an indirect read out of the potential cytotoxicity of the compounds. […] Plates were shaken and covered with aluminium foil for 25 min. Luminescence was measured in an Envision reader (Perkin Elmer). Evaluation of viability in CHO-K1 cells was used as an internal compound cytotoxicity standard across cellular assays. […] The plates were incubated for 24 h at 37°C in 5% CO2. After the incubation period, the culture medium was removed and washed with 100 μl of DPBS. Test compounds were dissolved and serially diluted in 100% DMSO. A final 1/100 dilution of each concentration was performed using F12 culture medium with 0.5% FBS. A volume of 100 μl culture medium containing the compounds or 1% DMSO (for control wells) was added to the wells containing the cells and the plate was incubated again 24h. After 24h of compound exposure, cells were washed with DPBS. Then, 100 μl of PBS were added, followed by the addition of 100 μl of ATPlite™ reagent. The plate was shaken for 25 minutes using a microtiter plate shaker. Luminescence was measured using a Luminoskan Ascent luminometer (Thermo Fisher Scientific).
For CHO-K1 viability assays, a standard curve of cells was included in the plate. Luminescence values versus cell number were plotted and the data adjusted to a linear equation. Luminescence values of the samples were interpolated to obtain number of cells. IC50 values were obtained by non-linear regression using Activity Base software (IDBS) and a four-parameter log equation.
(ATP-based viability assays read luminescence as a measure of living cells.)

T8 sequence (O43193 whole entry): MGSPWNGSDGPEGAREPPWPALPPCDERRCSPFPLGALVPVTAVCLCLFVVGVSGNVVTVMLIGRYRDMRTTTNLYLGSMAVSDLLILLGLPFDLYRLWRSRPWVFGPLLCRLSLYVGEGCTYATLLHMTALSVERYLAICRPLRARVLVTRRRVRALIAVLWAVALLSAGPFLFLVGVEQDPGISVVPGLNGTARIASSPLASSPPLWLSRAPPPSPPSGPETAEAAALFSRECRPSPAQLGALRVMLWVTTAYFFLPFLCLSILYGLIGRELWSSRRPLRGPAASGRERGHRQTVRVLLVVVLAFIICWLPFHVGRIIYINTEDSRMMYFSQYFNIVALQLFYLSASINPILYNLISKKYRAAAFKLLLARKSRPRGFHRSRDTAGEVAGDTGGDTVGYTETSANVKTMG
T16 sequence (P03372 whole entry): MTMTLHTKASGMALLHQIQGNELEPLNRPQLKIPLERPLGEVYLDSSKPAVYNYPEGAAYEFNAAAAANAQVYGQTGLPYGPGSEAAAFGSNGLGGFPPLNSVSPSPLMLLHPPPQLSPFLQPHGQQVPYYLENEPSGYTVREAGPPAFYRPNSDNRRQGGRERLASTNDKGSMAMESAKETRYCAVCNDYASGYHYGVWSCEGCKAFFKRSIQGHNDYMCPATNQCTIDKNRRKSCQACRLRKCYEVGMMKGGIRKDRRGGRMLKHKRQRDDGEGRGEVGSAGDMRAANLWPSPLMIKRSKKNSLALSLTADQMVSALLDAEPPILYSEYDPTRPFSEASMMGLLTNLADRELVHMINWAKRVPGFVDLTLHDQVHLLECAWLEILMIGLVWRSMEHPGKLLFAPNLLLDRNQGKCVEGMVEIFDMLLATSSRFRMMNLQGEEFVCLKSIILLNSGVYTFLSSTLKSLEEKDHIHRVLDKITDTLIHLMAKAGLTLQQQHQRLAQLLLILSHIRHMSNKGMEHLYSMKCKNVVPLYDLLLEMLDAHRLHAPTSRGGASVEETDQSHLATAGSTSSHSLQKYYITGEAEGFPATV
T6 sequence (Q9Y271 whole entry): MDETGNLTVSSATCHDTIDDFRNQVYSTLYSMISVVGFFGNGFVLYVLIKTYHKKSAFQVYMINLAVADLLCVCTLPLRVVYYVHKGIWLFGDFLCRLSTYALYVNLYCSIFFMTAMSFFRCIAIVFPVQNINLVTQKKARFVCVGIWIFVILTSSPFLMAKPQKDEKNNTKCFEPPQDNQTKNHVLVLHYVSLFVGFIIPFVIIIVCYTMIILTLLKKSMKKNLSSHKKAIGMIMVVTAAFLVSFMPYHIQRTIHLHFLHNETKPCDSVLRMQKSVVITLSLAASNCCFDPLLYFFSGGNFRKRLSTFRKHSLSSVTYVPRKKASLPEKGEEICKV
T9 sequence (P25103 whole entry): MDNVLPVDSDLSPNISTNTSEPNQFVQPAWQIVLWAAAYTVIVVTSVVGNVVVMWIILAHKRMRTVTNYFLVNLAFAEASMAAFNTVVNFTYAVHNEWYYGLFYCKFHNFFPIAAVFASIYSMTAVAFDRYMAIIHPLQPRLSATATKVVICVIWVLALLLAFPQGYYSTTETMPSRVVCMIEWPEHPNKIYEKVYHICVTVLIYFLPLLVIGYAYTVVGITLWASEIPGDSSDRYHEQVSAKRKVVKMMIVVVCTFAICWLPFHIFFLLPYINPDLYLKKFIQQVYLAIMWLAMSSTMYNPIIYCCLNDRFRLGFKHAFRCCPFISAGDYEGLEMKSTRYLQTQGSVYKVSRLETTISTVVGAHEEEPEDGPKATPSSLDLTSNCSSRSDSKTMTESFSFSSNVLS

For `Cn1cc(-c2cccc(-c3nc(C(=O)NC4C5CC6CC4CC(O)(C6)C5)c(N)nc3N)c2)cn1` (stereo not drawn) [compound 4], the inhibition (usually the drop in the measured response relative to a control, in per cent) at 1 µM on A2A was -5.3%; on alpha 1B, 2.4%; at beta 2 it was 1.6%; at glucagon, -8.3%; at BLT1 (LTB4), 14.2%; at CysLT1 (LTD4), 6.1%. For the same molecule, the inhibition at 1 µM was -5.1% on MC4; -4.9% at motilin; 11.6% at NK1; -1.8% at NK2; -2.1% at PAF; -8.1% on 5-HT1D. The inhibition at 1 µM is -0.4% on 5-HT3; -5.3% on 5-HT6; 1.2% on sst1; -10.3% on ERalpha; -53.9% at CaMK2alpha; -9.2% on Fyn. Besides, the inhibition at 1 µM on ZAP-70 was determined as 5.5%. Moreover, the “percentage of inhibition of activity” value in the experiment with kainate is reported as 4.1%; with I1, 11.5%; in experiment [1] it was -3.5%; in the experiment on Na+ channel (site 2), 29.7%; in the experiment on HIV-1 protease it was -16.1%; on MMP-1, “INTER”. The “percentage of inhibition of activity” value in experiment [2] was “INTER”.

Consider `COc1c(NC(=O)c2ccc(C)c(-c3nnc4c(NCC(C)(C)C)nccn34)c2)cc(C(C)(C)C)cc1NS(C)(=O)=O` [compound 7, reference compound], for which, in the experiment on CHO-K1 cells, the “Inhibition of CHO viability at [25 μM] % Inhibition ± SD” value is listed as 0.39 ± 11%.
